{"source": "patent US4728656A", "about": "“2,2-alkyldiylbis(thio)bis(imidazoles) useful for inhibition of the 5-lipoxygenase pathway” (SmithKline Beckman Corporation, priority 1986, dated 1988)", "key": {"myocardial infarction": {"test_system": "myocardial infarction", "conditions": "dogs; Mollane et al.; cited from earlier work"}, "5-Lipoxygenase": {"molecular_target": "T1, 5-Lipoxygenase (Rattus norvegicus, UniProt P12527)", "T1 construct": "The broken cell extract was then centrifuged at 10,000×g for 20 minutes (min) and the supernatant centrifuge at 100,000×g for 60 min; host or cells: RBL-1 cells, high speed (100,000×g) supernatant", "T1 sequence (P12527 1-673)": "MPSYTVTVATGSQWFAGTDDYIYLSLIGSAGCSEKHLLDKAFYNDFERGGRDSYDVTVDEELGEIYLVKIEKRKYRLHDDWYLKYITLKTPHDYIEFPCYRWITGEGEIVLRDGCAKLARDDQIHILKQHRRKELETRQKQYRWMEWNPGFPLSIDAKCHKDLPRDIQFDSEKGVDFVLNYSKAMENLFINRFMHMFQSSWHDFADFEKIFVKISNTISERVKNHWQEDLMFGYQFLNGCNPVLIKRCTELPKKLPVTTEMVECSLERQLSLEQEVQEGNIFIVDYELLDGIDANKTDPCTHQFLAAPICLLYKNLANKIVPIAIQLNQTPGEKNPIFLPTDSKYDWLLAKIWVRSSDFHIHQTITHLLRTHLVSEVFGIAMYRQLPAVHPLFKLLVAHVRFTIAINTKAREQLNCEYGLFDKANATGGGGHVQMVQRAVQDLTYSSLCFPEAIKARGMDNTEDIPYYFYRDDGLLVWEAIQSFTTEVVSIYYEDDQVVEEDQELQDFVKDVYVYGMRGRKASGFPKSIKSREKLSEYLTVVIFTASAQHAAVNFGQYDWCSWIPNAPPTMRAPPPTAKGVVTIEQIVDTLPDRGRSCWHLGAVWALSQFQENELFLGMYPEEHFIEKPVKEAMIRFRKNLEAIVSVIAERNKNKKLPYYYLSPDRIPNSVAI", "experiment": "Assay of 5-lipoxygenase activity in RBL-1 cell extract (high speed supernatant)", "assay_type": "biochemical", "conditions": "25 μM arachidonic acid, 5 min at 37° C.", "experimental": "For in vitro experiments, compounds were dissolved at appropriate concentrations in ethanol (final concentration 1.0%) and then diluted to final concentrations using the buffers indicated in the text.\nThe activities of these enzymes in extracts of RBL-1 cells were assayed using the method of Jakschik and Lee, Nature, 287, 51-52 (1980). RBL--1 cells were obtained from the American Type Culture Collection (#CRL 1378) and were grown at 37° C. (5% CO2 in air) in spinner culture in MEM supplemented with 10% heat inactivated fetal calf serum. Harvested cells were washed with 50 mM sodium phosphate buffer, pH 7.0, containing 1 mM EDTA and 0.1% gelatin, resuspended in fresh buffer (5×10^7 cells/ml) and disrupted by nitrogen cavitation using the Parr bomb at 750 psi for 10 min. The broken cell extract was then centrifuged at 10,000×g for 20 minutes (min) and the supernatant centrifuge at 100,000×g for 60 min. Aliquots (0.25 mls) of the supernatant were preincubated with or without drugs for 10 min, after which 12 mM CaCl2 was added and the reaction was initiated with […] arachidonic acid-1-^14 C (final concentration was 25 μM; specific activity 20,000 dpm/nmole). After incubation for 5 min at 37° C., the reaction was terminated by addition of 2 volumes (0.5 ml) ice cold acetone and the sample was allowed to deproteinize on ice for 10 min prior to centrifugation at 1,000×g for 10 min. The deproteinized supernatant was adjusted to pH 3.5 with 2N formic acid and extracted with 2 volumes of ice cold ethyl acetate. The extracted samples were dried under argon, redissolved in ethyl acetate and applied to Whatman LK5D thin layer chromatography (TLC) plates which were developed using the A-9 solvent system [organic phase of ethyl acetate: 2,2,5-trimethylpentane:acetic acid:water (110:50:20:10)] described by Hamberg and Samuelsson, J. Biol. Chem., 241, 257-263 (1966). Arachidonic acid, 5-HETE, LTB4 and PGD2 were quantified with a Berthold LB 2832 autoscanner.\nUnder these conditions, only the 5-lipoxygenase pathway metabolites were detectable. The 5-HETE and di-HETEs were formed at a linear rate, and substantial amounts of the arachidonic acid-1-^14 C substrate were utilized.\nDrug-induced effects on enzyme activities are described as the concentration of drug causing a 50% inhibition of metabolite synthesis (IC50)."}, "[1]": {"test_system": "Arachidonic Acid-Induced Mouse Ear Inflammation", "experiment": "Arachidonic acid-induced mouse ear inflammation (ear swelling)", "assay_type": "in vivo, male Balb/c mice", "parameters": "key to % Inhibition of Ear Swelling: *: p < .05; **: p < .01; ***: p < .001; NS: not significant", "conditions": "p.o.", "experimental": "In the following Examples male Balb/c mice (20-28 g) were used. All mice were obtained from Charles River Breeding Laboratories, Kingston, N.Y. Within a single experiment, mice were sex and age matched.\nCompounds of Formula (I), indomethacin, naproxen, and ibuprofen were each used as the free base. The compounds were homogenized in 0.5% tragacanth. Compounds were administered by gavage at the indicated dose in a final volume of 10 ml/kg.\nArachidonic acid in acetone (2 mg/20 μl ) was applied to the inner surface of the left ear. The thickness of both ears was then measured with a dial micrometer one hour after treatment, and the data were expressed as the change in thickness (10^-3 cm) between treated and untreated ears.\nTest compounds were given orally in 0.5% tragacanth at the times indicated in the text prior to the topical application of arachidonic acid.\nParenteral administration of compound was accomplished by subcutaneous injection of solution as indicated."}, "rheumatoid arthritis": {"test_system": "rheumatoid arthritis", "conditions": "preliminary observation; Neumann et al.; cited from earlier work"}, "[2]": {"test_system": "LTB4 and 5-HETE production", "conditions": "in vitro; Stenson et al.; cited from earlier work"}, "lipoxygenase": {"test_system": "lipoxygenase", "conditions": "in vitro; cited from earlier work"}, "psoriasis": {"test_system": "psoriasis", "conditions": "Allen et al.; cited from earlier work"}, "[3]": {"conditions": "5HETE production by RBL1 high speed supernatant, read-out: 5-HETE IC50"}, "[4]": {"conditions": "LTB4 production by RBL1 high speed supernatant, read-out: LTB4 IC50"}}, "note": "pIC50: −log10 of the molar value. Read-outs that look alike come from different tables or passages of the source."}
{"compound": "NC1=NN(c2cccc(C(F)(F)F)c2)CC1", "note": "[BW755-C]", "values": [{"measurement": "area of infarction following coronary occlusion", "setting": "myocardial infarction", "value": "reduced"}, {"measurement": "leukocyte infiltration into the ischaemic tissue", "setting": "myocardial infarction", "value": "inhibition of leukocyte infiltration into the ischaemic tissue"}]}
{"compound": "Fc1ccc(-c2nc(SCCSc3nc(-c4ccc(F)cc4)c(-c4ccc(F)cc4)[nH]3)[nH]c2-c2ccc(F)cc2)cc1", "note": "[Compound 1, 2,2'-[ethanediylbis(thio)]bis[4,5-bis(4-fluorophenyl)-1H-imidazole]]", "values": [{"measurement": "pIC50", "setting": "5-Lipoxygenase; [3]", "value": 4.73}, {"measurement": "pIC50", "setting": "5-Lipoxygenase; [4]", "value": 5.48}]}
{"compound": "O=C(CSc1nc(-c2ccc(F)cc2)c(-c2ccncc2)[nH]1)CSc1nc(-c2ccc(F)cc2)c(-c2ccncc2)[nH]1", "note": "[Compound 2, 2-2'-[1,3-propan-2-onediylbis(thio)]bis[5-(4-pyridyl)-4-(4-fluorophenyl)-1H-imidazole]]", "values": [{"measurement": "pIC50", "setting": "5-Lipoxygenase; [3]", "value": 5.77}, {"measurement": "pIC50", "setting": "5-Lipoxygenase; [4]", "value": 6.19}, {"measurement": "% Inhibition of Ear Swelling", "setting": "[1]; Table I, 2 mg arachidonic acid, thickness 1 h after treatment", "value": "NS"}]}
{"compound": "O=C(CSc1nc(-c2ccc(F)cc2)c(-c2ccc(F)cc2)[nH]1)CSc1nc(-c2ccc(F)cc2)c(-c2ccc(F)cc2)[nH]1", "note": "[Compound 3, 2,2'-[1,3-propan-2-onediylbis(thio)]bis[4,5-bis-(4-fluorophenyl)-1H-imidazole]]", "values": [{"measurement": "pIC50", "setting": "5-Lipoxygenase; [3]", "value": 5.28}, {"measurement": "pIC50", "setting": "5-Lipoxygenase; [4]", "value": 5.80}]}
{"compound": "O=C(O)c1cc(/N=N/c2ccc(S(=O)(=O)Nc3ccccn3)cc2)ccc1O", "note": "[Sulfasalazine]", "values": [{"measurement": "efficacy in rheumatoid arthritic patients", "setting": "rheumatoid arthritis", "value": "efficacy, including remission"}, {"measurement": "inhibition of LTB4 and 5-HETE production", "setting": "[2]", "value": "inhibit LTB4 and 5-HETE production in vitro"}]}
{"compound": "CC(C(=O)O)c1ccc2oc(-c3ccc(Cl)cc3)nc2c1", "note": "(stereo not shown) [benoxaprofen]", "values": [{"measurement": "lipoxygenase inhibitory activity", "setting": "lipoxygenase", "value": "in vitro lipoxygenase inhibitory activity"}, {"measurement": "effect on psoriasis", "setting": "psoriasis", "value": "promising effect"}]}
{"compound": "CC(C)Cc1ccc(C(C)C(=O)O)cc1", "note": "(stereo not shown) [ibuprofen]", "values": [{"measurement": "antiinflammatory activity", "setting": "[1]; 250 mg/kg", "value": "did not exhibit detectaole antiinflammatory activity"}]}
{"compound": "COc1ccc2c(c1)c(CC(=O)O)c(C)n2C(=O)c1ccc(Cl)cc1", "note": "[indomethacin]", "values": [{"measurement": "antiinflammatory activity", "setting": "[1]; 10 mg/kg", "value": "did not exhibit detectaole antiinflammatory activity"}]}
{"compound": "COc1ccc2cc([C@H](C)C(=O)O)ccc2c1", "note": "[naproxen]", "values": [{"measurement": "antiinflammatory activity", "setting": "[1]; 100 mg/kg", "value": "did not exhibit detectaole antiinflammatory activity"}]}
